The target in data set [1] is T1, human CAR LBD (Homo sapiens, UniProt Q14994).
T1 construct: constructs encoding helices 3–12 and helix 1 of human CAR LBD; expressed in transfected cells; host or cells: HepG2
T1 sequence (Q14994 103-150 isoform Q14994-2 limits assumed): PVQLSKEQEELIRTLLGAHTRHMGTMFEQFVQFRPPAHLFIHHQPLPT
T1 sequence (Q14994 151-348 isoform Q14994-2 limits assumed): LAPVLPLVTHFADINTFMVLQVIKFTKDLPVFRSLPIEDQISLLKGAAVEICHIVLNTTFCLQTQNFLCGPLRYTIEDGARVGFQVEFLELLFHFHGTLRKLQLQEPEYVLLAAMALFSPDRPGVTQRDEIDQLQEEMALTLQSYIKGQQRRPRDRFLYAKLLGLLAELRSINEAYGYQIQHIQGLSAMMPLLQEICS
As to the kind of experiment: CAR LBD assembly assay (CAR AA). It is filed as cell-based. From the text: The CAR LBD assembly assay used constructs encoding helices 3–12 and helix 1 of human CAR LBD as described before. GL4.31[luc2P/GAL4UAS/Hygro] (pGAL4 UAS-luc) luciferase reporter vector and pRL-TK Renilla expression vector (Promega) were used in the assay in HepG2 cells transfected using Lipofectamine 3000.

Data set [2] has as its system rodent PXRs. As to the kind of experiment: Rodent PXR orthologue luciferase reporter assays. It is filed as cell-based, rat/mouse. The settings on record: PCN as prototypical inducer. The procedure:
The CYP3A4 gene promoter luciferase reporter construct (p3A4-luc) bears a distal XREM (−7836/–7208) and a proximal promoter sequence (prPXRE, −362/+53) from the CYP3A4 gene promoter region. […] The human PXR expression vector (variant 1, NM_003889.3) as well as vectors for mouse, rat, and monkey orthologues were described in our recent paper (39). […] Rhesus monkey, mouse, and rat PXR expression vectors (100 ng/well each) were also obtained from GenScript. […] Carlberg (University of Kuopio, Kuopio, Finland).
(§1) The cells were cultured in DMEM medium (Merck) supplemented with 10% fetal bovine serum.
Background: In a reporter assay the amount or activity of a reporter protein is the signal.

For data set [3], the target named is T2, eGFP-tagged PXR (Homo sapiens, UniProt O75469+Q96SW2).
T2 construct: host or cells: COS-1
As to the kind of experiment: Fluorescence (eGFP) intensity assay in COS-1 cells. It is filed as cell-based. The settings on record: 24 h. The procedure:
COS-1 cells were transfected with 150 ng of PXR-eGFP (NR1I2_pcDNA3.1(+)-N-eGFP, GenScript Biotech) and 150 ng of CRBN (GenScript - CRBN_OHu21180D_pcDNA3.1+/C-(K)-DYK) in a 48-well plate using Lipofectamine 3000, following the manufacturer’s protocol. After 24 h, the transfected cells were treated with varying concentrations of the MI1013 compound and incubated for another 24 h. The eGFP fluorescence was then checked and imaged using the Invitrogen EVOS imaging system. Fluorescence intensity was measured using the Spark Multimode Microplate Reader (V2.2) in Fluorescence Intensity Scan Top Reading mode. The excitation wavelength was set between 440 and 500 nm, and the emission wavelength was set at 545 nm (Monochromator), with a gain of 100 and an integration time of 40 μs. Graphs were generated using GraphPad Prism.

Data set [4] addresses T3, PXR (Homo sapiens, UniProt O75469).
T3 sequence (O75469 1-434): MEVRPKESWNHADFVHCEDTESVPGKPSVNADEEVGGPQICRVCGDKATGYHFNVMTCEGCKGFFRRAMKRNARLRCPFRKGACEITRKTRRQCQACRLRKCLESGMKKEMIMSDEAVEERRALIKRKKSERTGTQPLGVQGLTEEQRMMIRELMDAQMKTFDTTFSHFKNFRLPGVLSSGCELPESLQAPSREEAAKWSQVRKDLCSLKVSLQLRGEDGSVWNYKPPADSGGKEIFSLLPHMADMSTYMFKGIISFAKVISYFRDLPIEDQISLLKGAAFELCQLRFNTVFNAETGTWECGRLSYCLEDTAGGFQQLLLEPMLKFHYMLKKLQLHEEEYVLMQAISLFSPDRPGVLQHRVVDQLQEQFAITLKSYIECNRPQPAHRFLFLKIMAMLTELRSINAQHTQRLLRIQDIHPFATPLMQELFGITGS
As to the kind of experiment: PXR-responsive CYP3A4 promoter luciferase reporter assay in HepG2, agonist mode. It is filed as cell-based. Set-up: expressed in transfected cells; host or cells: HepG2. The settings on record: HepG2, at concentrations up to 10 μM. The procedure: Rhesus monkey, mouse, and rat PXR expression vectors (100 ng/well each) were also obtained from GenScript. […] Carlberg (University of Kuopio, Kuopio, Finland).
as §1

Data set [5] concerns the target T4, PXR-HiBiT (Homo sapiens, UniProt O75469+Q96SW2).
T4 construct: host or cells: HepG2
As to the kind of experiment: Nano-Glo HiBiT lytic assay in HepG2 cells. It is filed as cell-based. The settings on record: HepG2, 10 μM, 8 h, 0.3 ng PXR-HiBiT vector. The procedure:
For HiBiT assay, HepG2 cells (40,000 cells/well) were seeded in a 48-well plate. The following day, cells were transfected with 0.3–100 ng of PXR-HiBiT (GenScript-HiBiT_NR1I2_OHu23779D_pcDNA3.1+/C-(K)-DYK) and 0.3–100 ng of CRBN (GenScript-CRBN_OHu21180D_pcDNA3.1+/C-(K)-DYK) in a 1:1 ratio using Lipofectamine 3000 (ThermoFisher Scientific), following the manufacturer’s protocol. After 24 h, cells were treated with varying concentrations of MI1013, and vehicle (0.1% DMSO). The plates were incubated for 8 h, and the HiBiT NanoLuc signal was measured using the Nano-Glo HiBiT Lytic Detection System (Promega; […]) in a Synergy microplate reader (Biotek) under luminescence mode with a read time of 0.2 s/well, gain set as auto, and integration time 2 s. Results are reported as relative abundance or response (%) change relative to DMSO control cells. […] The DC50 value was calculated using a curve fit–log(inhibitor) vs response–with a variable slope (four-parameter) logistic fitting using GraphPad Prism.
A general note: HiBiT is a short tag that completes a luciferase, so light tracks the accessible tagged protein.

pEC50: −log10 of the molar value.

Here are results for 2 molecules from publication PMC12305494, “Discovery of PXR Antagonist MI891 and PXR Degrader MI1013 and Their Roles in Hepatic Gene Regulation” (Journal of Medicinal Chemistry, 2025).

T4 sequence (Q96SW2 whole entry, one chain of several): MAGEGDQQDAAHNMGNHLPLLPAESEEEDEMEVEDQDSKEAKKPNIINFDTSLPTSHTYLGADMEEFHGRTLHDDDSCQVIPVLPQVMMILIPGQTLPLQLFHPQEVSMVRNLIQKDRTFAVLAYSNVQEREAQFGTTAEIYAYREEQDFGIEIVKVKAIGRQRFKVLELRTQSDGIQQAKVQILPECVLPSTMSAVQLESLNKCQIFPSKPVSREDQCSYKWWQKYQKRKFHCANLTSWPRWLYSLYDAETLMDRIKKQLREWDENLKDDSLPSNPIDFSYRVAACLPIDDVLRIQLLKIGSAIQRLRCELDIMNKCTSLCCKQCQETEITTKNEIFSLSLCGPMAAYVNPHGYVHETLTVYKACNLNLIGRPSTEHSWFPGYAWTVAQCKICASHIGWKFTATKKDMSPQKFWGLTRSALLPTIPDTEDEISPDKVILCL
T2 sequence (Q96SW2 whole entry, one chain of several): as above

The term pEC50 denotes the negative decadic logarithm of the EC50, by convention in mol/L. A low value points to a large EC50. As to `NC(=O)c1cc(Cn2cc(-c3c(-c4ccc(Cl)cc4)nc4c(F)cc(F)cn34)nn2)ccc1Cl` [Compound 11, 2-Chloro-5-((4-(2-(4-chlorophenyl)-6,8-difluoroimidazo[1,2-a]pyridin-3-yl)-1H-1,2,3-triazol-1-yl)methyl)-benzamide], the “activation of CAR LBD assembly” value in data set [1] (at 10 μM concentration) is listed as “lack of significant (p value 0.07) activation”. The pEC50 in data set [1] (na = no activity, tox = cytotoxicity in HepG2 cells) was < 5.00. In data set [2], the “activity on rodent PXRs” value is listed as “no activities”.
Turning to “N-(4-((1-(2,5-dimethoxyphenyl)-5-methyl-1H-1,2,3-triazol-4-yl)sulfonyl)phenyl)-3-(2-(2-(2-(4-(((2-(2,6-dioxopiperidin-3-yl)-1,3-dioxoisoindolin-4-yl)amino)methyl)-1H-1,2,3-triazol-1-yl)ethoxy)ethoxy)ethoxy)propenamide [Compound 36]”, in data set [3], the “degradation of eGFP-tagged PXR (loss of fluorescence)” value is “dose-dependent degradation of eGFP-tagged PXR”. Also, in data set [4], the PXR agonistic activity result is given as “did not exhibit agonistic activity”. Further, the PXR-HiBiT degradation result in data set [5] is listed as “confirmed PXR degradation”.
